Data: paper PMC5548745, “Agonist-induced dimer dissociation as a macromolecular step in G protein-coupled receptor signaling” (Nature Communications, 2017)

B1: Frizzled 6 (FZD6), wild type, expressed as V5-FZD6-mCherry and as FZD6-GFP (receptor, human, UniProt O60353 19-706, looked up)
chain: HSLFTCEPITVPRCMKMAYNMTFFPNLMGHYDQSIAAVEMEHFLPLANLECSPNIETFLCKAFVPTCIEQIHVVPPCRKLCEKVYSDCKKLIDTFGIRWPEELECDRLQYCDETVPVTFDPHTEFLGPQKKTEQVQRDIGFWCPRHLKTSGGQGYKFLGIDQCAPPCPNMYFKSDELEFAKSFIGTVSIFCLCATLFTFLTFLIDVRRFRYPERPIIYYSVCYSIVSLMYFIGFLLGDSTACNKADEKLELGDTVVLGSQNKACTVLFMLLYFFTMAGTVWWVILTITWFLAAGRKWSCEAIEQKAVWFHAVAWGTPGFLTVMLLAMNKVEGDNISGVCFVGLYDLDASRYFVLLPLCLCVFVGLSLLLAGIISLNHVRQVIQHDGRNQEKLKKFMIRIGVFSGLYLVPLVTLLGCYVYEQVNRITWEITWVSDHCRQYHIPCPYQAKAKARPELALFMIKYLMTLIVGISAVFWVGSKKTCTEWAGFFKRNRKRDPISESRRVLQESCEFFLKHNSKVKHKKKHYKPSSHKLKVISKSMGTSTGATANHGTSAVAITSHDYLGQETLTEIQTSPETSMREVKADGASTPRLREQDCGEPASPAASISRLSGEQVDGKGQAGSVSESARSEGRISPKSDITDTGLAQSNNLQVPSSSEPSSLKGSTSLLVHPVSGVRKEQGGGCHSDT
notes: Frizzled 6 (FZD6), human, Uniprot ID O60353; Two differently tagged copies of the same receptor are tested against each other, so they are written as one molecule; The FCS experiment used FZD6-GFP alone; also called FZD6 wt; source: HEK293, transiently transfected (Lipofectamine 2000), in living cells; not shown: V5 (on the crosslinked copy), N-terminal, kept; mCherry (on the crosslinked copy), …

Assays:
[1] = test system: ERK1/2 phosphorylation in MLE-12 cells; assay: basal P-ERK1/2 immunoblot, MLE-12 cells expressing minigenes; type: cell-based, mouse; settings: transient transfection of minigene
Method: (§1) MLE-12 or HEK293 cells (ATCC) were plated in a 24- or 48-well plate at a density of 100,000 or 50,000 cells/well, respectively. After 24 h, cells were transfected using Lipofectamine 2000 according to the manufacturer’s instructions. Cells were stimulated (24 h post-transfection) with 300 ng ml^−1 recombinant carrier-free WNT-5A (CF WNT-5A; R&D Systems). Stimulation was stopped by the addition of lysis buffer (1% NP-40, 150 mM NaCl, 50 mM Tris/HCl pH 8). Lysates were sonicated and analyzed by 7.5 or 10% Mini-PROTEAN TGX precast polyacrylamide gels (Bio-Rad) and transferred to PVDF membranes using the Trans-Blot Turbo system (Bio-Rad). […] Proteins were detected with horseradish peroxidase-conjugated secondary antibodies (goat anti-rabbit and goat anti-mouse (Pierce)) and Clarity Western ECL Blotting Substrate (Bio-Rad). […]
(§2) Quantification of P-ERK1/2 is normalized to β-actin as loading control. […] P-ERK1/2, HA-TM1/5 and β-actin as loading control were assessed by PAGE/immunoblotting. […]

[2] = test system: protease-activated receptor (endogenous); assay: thrombin-induced P-ERK1/2 in HEK293 cells with minigenes; type: cell-based; settings: thrombin 10 U/ml, 10 min
[3] = test system: HEK293 and MLE-12 cell membrane; assay: immunocytochemistry of HA-tagged minigenes without permeabilization; type: cell-based; settings: 4% paraformaldehyde, no permeabilization
Source text: Supplementary Figure 7: Control experiments for assaying receptor dimerization by dcFRAP and expression of minigenes. (a) HEK293 and MLE-12 cells were transfected with HA-tagged TM1/5 minigenes, fixed in 4% paraformaldehyde and stained with an anti-HA antibody/Cy2-conjugated secondary antibody in the absence of cell permeabilization by detergents. […]
confirms both the membrane expression of the minigenes as well as the correct orientation of the peptides with the N-terminal signal sequence/HA tag on the extracellular side accessible to the primary antibody. Images were taken with a 40x objective using the 488 nm laser line on a Zeiss LSM 710 confocal microscope. Size bars – 10 µm. (b) Bar graph compares the immobile fraction in dcFRAP experiments of FZD6-GFP after CL of V5-FZD6-mCherry in cells expressing minigenes corresponding to either TM1 (control) or TM5 (competing at the dimer interface). P= […]
Error bars give s.e.m.; * P<0.05 (two-tailed t-test). (c) Transient transfection of TM5, […]
abrogation of dimer formation, in the presence of TM5, reduces receptor-mediated signaling. (d) Bar graph summarizes four independent immunoblotting experiments. P-ERK1/2 in TM1 expressing MLE-12 cells were normalized to 100%. […]
as §2

[4] = test system: lysophosphatidic acid receptor (endogenous); assay: lysophosphatidic acid-induced P-ERK1/2 in HEK293 cells with minigenes; type: cell-based; settings: lysophosphatidic acid 10 µM, 10 min
Method: as §1, with “Cells were stimulated (24 h post-transfection) with 300 ng ml^−1 recombinant carrier-free WNT-5A (CF WNT-5A; R&D Systems).” left out
as §2

FZD6–FZD6 dimer = assay: dcFRAP of V5-FZD6-mCherry/FZD6-GFP (FZD6 dimerization); type: cell-based, human; settings: HEK293; co-transfection of V5-FZD6-mCherry, FZD6-GFP and minigene; N=43 TM1, N=66 TM5
Method: For dual color FRAP experiments, cells grown in four compartment 35 mm glass bottom dishes were washed three times with BE buffer[19] (150 mM NaCl, 2.5 mM KCl, 10 mM HEPES, 12 mM glucose, 0.5 mM CaCl2, and 0.5 mM MgCl2). Then, the cells were incubated at RT for 30 min with biotin-conjugated goat polyclonal anti-V5 antibody (Bethyl) diluted 1:100 in BE buffer supplemented with 2.5% bovine serum albumin. For antibody-mediated cross-linking, avidin was added and incubated for 15 min and washed two times with BE buffer before the experiments were performed. In Fig. 4, dcFRAP experiments are presented that employ chemical surface crosslinking to visualize assembly of FZD6 with DVL or heterotrimeric G proteins according to previously published protocols. Live cell imaging experiments were carried out using a Zeiss 710 laser scanning microscope. Images were acquired using a 40×, 1.2 NA C-Apochromat objective and the 488 nm and the 561 nm laser lines were used to excite GFP and mCherry fluorophores, respectively. Photobleaching was performed by 100% laser illumination of a 1.80 × 1.80 µm area placed over the cell plasma membrane. Fluorescence was measured pre- and post-bleach using low-intensity illumination for a total time period of 100 s. Average pixel intensity was measured using the ZEN2013 software, corrected for background fluctuations and bleaching artifacts and normalized to pre-bleached intensity. The recovered mobile fraction (F m) was calculated as follows: F m = (I P–I 0)/(I I–I 0), where I I is the initial intensity measured prior to bleaching, I 0 is the immediate fluorescence intensity post-bleaching and I P is intensity value post-bleaching. The mobile fraction was defined by the average of the fluorescence recovery assessed between time 85–101 s (including pre-bleach measurements). We excluded experiments in which the extracellularly tagged receptors were not sufficiently immobilized after the crosslinking procedure (cutoff at 40% crosslinking-induced reduction in mobile fraction). Kinetic determination of mobile fractions of crosslinked V5-FZD6-mCherry and FZD6-GFP with WNT stimulation over time were performed in one cell culture well. Measurements for each time point were performed on separate cells.
Statistical and graphical analysis was performed using Graph Pad Prism 5 software. Data were analyzed by two-tailed t-test or one-way ANOVA with Fisher’s least significant difference post hoc analysis. Curve fitting of FRAP data was done with a two-phase association nonlinear function using the least square fit. Data for receptor titration in the presence of C59 and output to P-ERK1/2 in Fig. 6h was fit to a linear regression model. All experiments were repeated at least three times in independent experiments (not representing technical replicates). For single cell analysis (dcFRAP), the number of the individual ROIs obtained from several cells in at least three independent experiments is provided in the figure legends. Data from individual ROIs are summarized for data presentation providing the sum of independent observations. Significance levels are given as: *P < 0.05; **P < 0.01; ***P < 0.001. Data in FRAP curves and bar graphs (FRAP) are presented as mean ± s.e.m.

[5] = biological target: B1; assay: cell-based or functional assay
[6] = biological target: T1, FZD6 TM4 synthetic peptide (human); assay: SEC; Superdex 30 analytical column, triple distilled water + 0.01% DDM, room temperature; 500 µM of each peptide, incubated together for 2 h; settings: both partners purified
T1 construct: flanking lysines added to the transmembrane stretch; transmembrane helix 4 of human FZD6, Uniprot ID O60353; Whole peptide as printed: [residues removed]; source: synthetic peptide (Pepscan Therapeutics or Fmoc synthesis, HPLC purified)
T1 peptide: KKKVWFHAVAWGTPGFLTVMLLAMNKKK

[7] = biological target: the molecule itself; assay: fluorescence cross-correlation spectroscopy (FCCS); living HEK293 cells co-expressing FZD6-GFP and V5-FZD6-mCherry at low levels (10-1000 receptors per µm^2), no crosslinking; dynamic measurements before and after WNT-5A (300 ng ml^-1)

Row | Molecule | effect on basal P-ERK1/2 [1] | effect on thrombin-induced P-ERK1/2 [2] | membrane expression and orientation (anti-HA staining) [3] | effect on lysophosphatidic acid-induced P-ERK1/2 [4] | other results
1 | KKKSFIGTVSIFCLCATLFTFLTFLIKKK [TM1 minigene] | did not affect basal ERK1/2 levels | did not observe any difference in P-ERK1/2 induction | Positive anti-HA staining in the cell membrane | did not observe any difference in P-ERK1/2 induction | 
2 | KKLDASRYFVLLPLCLCVFVGLSLLLAGIISKKK [TM5 minigene] | reduced basal P-ERK1/2 | did not observe any difference in P-ERK1/2 induction | Positive anti-HA staining in the cell membrane | did not observe any difference in P-ERK1/2 induction | effect of minigene on FZD6 dimer formation (FZD6–FZD6 dimer): perturbed dimer formation
3 | KKLDASRYFVLLPLCLCVFVGLSLLLAGIISKKK [HA-tagged TM5 minigene of FZD6] |  |  |  |  | basal P-ERK1/2 level (immunoblot) in MLE-12 cells expressing the TM5 minigene, which interferes with the FZD6-FZD6 dimer; the TM1 minigene had no effect [5]: 56.7%
4 | KKLDASRYFVLLPLCLCVFVGLSLLLAGIISKKK (flanking lysines added to the transmembrane stretch; transmembrane helix 5 of human FZD6, Uniprot ID O60353; source: synthetic peptide (Pepscan Therapeutics or Fmoc synthesis, HPLC purified)) [FZD6 TM5 synthetic peptide] |  |  |  |  | binding result [6]: binds
5 | B1 |  |  |  |  | stoichiometry N [7]: 2
